For one assay, the target named is ΔF508 CFTR (Homo sapiens, UniProt P13569, DEL508-508). The assay can be described thus: Chloride permeability by SPQ fluorescence assay upon forskolin stimulation, HBE cells from CF patients. It is filed as cell-based. On the procedure: Cells. Cell Lines and Cell Culture—Human bronchial epithelial (HBE) cells, homozygous for the […] mutation and its isogenic wild-type were obtained from lung transplants (CF patients) or lung resections (non-CF patients) (kindly provided by L J Galietta within the Italian Cystic Fibrosis Foundation). Cells were maintained at 37° C. in a humidified incubator in an atmosphere containing 5% CO2, and the experiments were done 5 days after plating (21, 22). Stable lentiviral-based transduction of the parental CFBE41o− cells (ΔF508/ΔF508), originally immortalized and characterized by Dr. D. Gruenert and co-workers (32) with either WT-CFTR or ΔF508-CFTR, was performed by Tranzyme, Inc. (Birmingham, AL). […]
The activity of Tα1, either alone or in combination with ivacaftor, has been comparatively assessed with that of lumacaftor on CFBE41o− cells expressing ΔF508 CFTR and on HBE cells from CF patients. To this purpose, cells were treated with Tα1 (100 ng/ml), VX-770 (1 μM) or VX-809 (3 μM) alone or in combination for 24 hours and assessed for CFTR protein expression and function. […] In terms of ion channel activity, Tα1, either alone or in combination with ivacaftor, increased the chloride permeability of ΔF508 CFTR cells between 60 to 70% relative to control (considering WT control as 100% reference value)(B, assessed by a fluorescence assay upon stimulation with fosforkolin, Fsk). […]

The test system of a further assay is TMEM16A. Nature of the assay: DNA microarray analysis of mice with pulmonary aspergillosis. It is filed as in vivo. To be noted: unpublished results.
Assay [1] relates to A. fumigatus-infected C57BL/6 and Cftr−/− mice. The assay can be described thus: Th cytokines in lungs and transcription factors in draining thoracic lymph nodes (ELISA or RT-PCR). It is filed as in vivo. On the procedure: Mice. Wild-type (WT) inbred C57BL6 mice, 8 to 12 weeks old, were purchased from Charles River Breeding Laboratories (Calco, Italy). Genetically engineered homozygote Cftr^−/− mice (33) were bred at the Cystic Fibrosis core animal facility at San Raffaele Hospital, Milan, Italy. Experiments were performed following protocols approved by the institutional animal committee and in accordance with European Economic Community Council Directive as well as institutional animal care and use guidelines.
Infection and treatments. Mice were anesthetized by i.p. injection of 2.5% avertin (Sigma Chemical Co, St. Louis, MO) before intranasal instillation of 2×10^7 A. fumigatus (Af293) resting conidia/20 μl saline. For histology, paraffin-embedded tissue were stained with Periodic acid-Schiff (PAS), and BAL fluid collection was done as described (21, 22). Treatments were as follow: Tα1 and the scrambled polypeptide were supplied as purified (the endotoxin levels were <0.03 pg/ml, by a standard limulus lysate assay) sterile, lyophilized, acetylated polypeptide. The sequences were as follows: Ac-[…]O (Tα1) (SEQ ID NO:1) and Ac-[…]OH (scrambled peptide) (SEQ ID NO:2). The lyophilized powders were reconstituted in sterile water and 200 μg/kg/i.p. were given daily for 6 consecutive days beginning the day of the infection.
Reverse transcriptase-polymerase chain reaction (RT-PCR). Total RNA extraction and synthesis and PCR of cDNA were done on total lung cells as described (21, 22). Amplification efficiencies were validated and normalized against Gapdh. The thermal profile for SYBR Green real-time PCR was at 95° C. for 3 min, followed by 40 cycles of denaturation for 30 s at 95° C. and an annealing/extension step of 30 s at 60° C. Each data point was examined for integrity by analysis of the amplification plot. The mRNA-normalized data were expressed as relative mRNA in treated cells compared to that of unstimulated cells.
Cytokine determination by ELISA. Cytokine levels in lung homogenates from treated and untreated mice were determined by cytokine-specific ELISA (R&D Systems, Inc. Space Import-Export srl, Milan, Italy) as described (21, 22)
The inflammatory Th17 pathway is involved in CF lung inflammation (21, 22, 43) while the Th2 pathway is associated with CF fungal allergy (44). For the assessment of the effects of Tα1 on Th cell activation, levels of Th cytokines in the lungs and of the corresponding transcription factors in the draining thoracic lymph nodes have been measured in C57BL/6 and Cftr^−/− mice infected and treated with Tα1 as above. Tα1 decreased Th17 (decreased levels of IL-17A and of the Th17 transcription factor Rorc), Th2 (low IL-4 and Gata3) cell activation while promoting both Th1 (increased IFN-γ and Tbet) and Treg (increased IL-10 and Foxp3) cell activity. […] The cytokine levels were assessed in lung homogenates (by ELISA or RT-PCR) and the expression of the corresponding Th transcription factors (by RT-PCR) in the draining thoracic lymph nodes. The results shown represent pooled data from two experiments. n.d. not done. *P<0.05; **P<0.01; ***P<0.001.
In general terms: In an ELISA, binding on a coated surface is turned into a signal by an enzyme label.

[2] abbreviates: draining thoracic lymph nodes, RT-PCR.

Sequence of ΔF508 CFTR (P13569 with tags, fused parts or gaps DEL508-508): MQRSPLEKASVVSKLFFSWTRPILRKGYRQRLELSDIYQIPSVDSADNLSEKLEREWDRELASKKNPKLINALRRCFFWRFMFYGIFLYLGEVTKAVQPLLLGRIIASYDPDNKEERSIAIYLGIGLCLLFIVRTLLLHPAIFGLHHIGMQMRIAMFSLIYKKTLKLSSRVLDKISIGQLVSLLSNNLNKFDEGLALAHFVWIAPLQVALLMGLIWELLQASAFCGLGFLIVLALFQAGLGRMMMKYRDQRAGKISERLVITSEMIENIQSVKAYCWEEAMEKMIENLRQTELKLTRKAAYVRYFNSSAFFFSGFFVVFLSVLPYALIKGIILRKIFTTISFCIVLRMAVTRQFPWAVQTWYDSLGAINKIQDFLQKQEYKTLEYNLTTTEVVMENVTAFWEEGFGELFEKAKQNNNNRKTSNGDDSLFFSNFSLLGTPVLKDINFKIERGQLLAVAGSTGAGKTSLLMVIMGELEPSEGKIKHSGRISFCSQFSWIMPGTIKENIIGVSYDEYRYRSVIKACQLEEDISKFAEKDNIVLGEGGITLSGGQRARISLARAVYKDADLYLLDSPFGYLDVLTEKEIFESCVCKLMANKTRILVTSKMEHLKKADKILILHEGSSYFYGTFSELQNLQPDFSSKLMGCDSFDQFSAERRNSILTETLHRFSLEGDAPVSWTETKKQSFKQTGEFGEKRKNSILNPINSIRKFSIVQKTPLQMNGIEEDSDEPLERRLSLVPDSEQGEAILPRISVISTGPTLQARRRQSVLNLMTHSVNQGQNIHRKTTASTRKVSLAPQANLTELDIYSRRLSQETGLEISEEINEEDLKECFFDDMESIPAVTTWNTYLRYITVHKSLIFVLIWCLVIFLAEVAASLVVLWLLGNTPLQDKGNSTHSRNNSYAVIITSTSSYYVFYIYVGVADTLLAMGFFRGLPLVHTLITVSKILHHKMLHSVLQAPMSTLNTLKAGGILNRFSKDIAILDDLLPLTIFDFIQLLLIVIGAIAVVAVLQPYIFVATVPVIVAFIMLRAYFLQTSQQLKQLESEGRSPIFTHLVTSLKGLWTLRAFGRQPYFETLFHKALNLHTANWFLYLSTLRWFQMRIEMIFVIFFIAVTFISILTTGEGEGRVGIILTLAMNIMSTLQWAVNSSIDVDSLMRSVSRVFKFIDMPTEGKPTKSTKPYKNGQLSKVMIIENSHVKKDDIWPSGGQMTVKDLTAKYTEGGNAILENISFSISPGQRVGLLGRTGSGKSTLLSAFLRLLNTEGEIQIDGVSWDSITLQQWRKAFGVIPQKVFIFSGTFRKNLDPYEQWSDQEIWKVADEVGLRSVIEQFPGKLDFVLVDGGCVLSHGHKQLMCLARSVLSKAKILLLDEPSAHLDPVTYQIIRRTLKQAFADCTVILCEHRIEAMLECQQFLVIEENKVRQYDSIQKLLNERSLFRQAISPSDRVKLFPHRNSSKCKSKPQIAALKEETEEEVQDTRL

Take “Ac-Ser-Asp-Ala-Ala-Val-Asp-Thr-Ser-Ser-Glu-Ile-Thr-Thr-Lys-Asp-Leu-Lys-Glu-Lys-Lys-Glu-Val-Val-Glu-Glu-Ala-Glu-Asn-O (Ac-SDAAVDTSSEITTKDLKEKKEVVEEAEN-OH; not fully specified; printed as Ac-Ser-Asp-Ala-Ala-Val-Asp-Thr-Ser-Ser-Glu-Ile-Thr-Thr-Lys-Asp-Leu-Lys-Glu-Lys-Lys-Glu-Val-Val-Glu-Glu-Ala-Glu-Asn-O; listed as Homo sapiens) [Tα1, naturally occurring polypeptide of 28 amino acid; supplied as purified sterile, lyophilized, acetylated polypeptide]”: the “chloride permeability of ΔF508 CFTR cells relative to control (WT control as 100%)” value in the assay with ΔF508 CFTR (100 ng/ml Tα1 for 24 hours, forskolin stimulation) is given as “approximately 70%”. For the same substance, the “ion channel activity compared to lumacaftor” value with ΔF508 CFTR (24 hours) is “similar”. In addition, the “expression of TMEM16A in mice with pulmonary aspergillosis” value with TMEM16A was “greatly increased”. For the same substance, in assay [1] (setting [2]), the “Foxp3 expression (Treg)” value is “increased”, the “Gata3 expression (Th2)” value was “low”, the “Tbet expression (Th1)” value is on record as “increased” and the “Th17 transcription factor Rorc expression” value is “decreased”. Also, in assay [1] (lung homogenates), the “IFN-γ level (Th1)” value was “increased”, the “IL-4 level (Th2)” value is recorded as “low” and the “IL-10 level (Treg)” value was “increased”. Also, in assay [1] (lung homogenates, infected and Tα1-treated C57BL/6 and Cftr−/− mice), the “IL-17A level (Th17)” value is given as “decreased”.

The values above are taken from patent US12083165B2, “Thymosin alpha 1 for use in treatment of cystic fibrosis” (SciClone Pharmaceuticals International (SG) PTE. LTD., priority 2015, dated 2024).
